Source: patent US9006285B2, “Therapeutic agent for hepatitis C” (Mochida Pharmaceutical Co., Ltd., priority 2008, dated 2015)

What was measured:
[1] = system: HCV replication in OR6 cells; conditions: cited from earlier work
[2] = in vivo; cited from earlier work
hepatitis C virus (HCV) [3] = assay: EPA-E before and during interferon therapy in hepatitis C with or without hepatic steatosis (Example 2-2); assay type: in vivo, human; conditions: 1800 to 2700 mg/day oral at least one month before and during interferon therapy
Procedure: The patients to be tested are divided into two groups, EPA-E administered group and EPA-E non-administered group. In addition, a fatty liver group and a non-fatty liver group are set up in each of the EPA-E administered group and the EPA-E non-administered group by investigating the degree of hepatic fatty change through diagnostic imaging or hepatobiopsy. To the EPA-E administered group, 1800 to 2700 mg/day of EPA-E is orally administered for at least one month before interferon therapy. To the EPA-E non-administered group, none of EPA and derivatives thereof is administered during the testing period. Subsequently, interferon therapy is conducted on each group for three months or longer. The dose, dosage interval, dosage period, and the like of interferon are specified as appropriate to the condition of a patient, side effects of the interferon, and so forth. After the termination of interferon administration, the alanine aminotransferase (ALT) activity and the HCV-RNA level are measured (the latter by a COBAS AMPLICOR MONITOR assay), and a hepatohistological test is conducted. It should be noted that EPA-E is also administered to the EPA-E group during the administration of interferon.

[4] = system: HCV replication in Ava5 cells; conditions: cited from earlier work
[5] = healthy male adult, cited from earlier work
hepatitis C virus (HCV) [6] = assay: EPA-E in interferon non-responders having hepatitis C complicated with hepatic steatosis (Example 1); assay type: in vivo, human; conditions: 2700 mg/day oral, third and sixth month, no interferon
Procedure: To the patients from whom interferon was withdrawn for about one month after they were determined to be unresponsive to interferon therapy, 2700 mg/day of EPA-E is orally administered for three months or longer. During the testing period, it is forbidden to administer any new drug considered to effect change in hepatic function. Also forbidden is administration of interferon. If the alanine aminotransferase (ALT) activity and/or the HCV-RNA level is quantified (the latter by a COBAS AMPLICOR MONITOR assay) before EPA-E administration, as well as on the third month and the sixth month of EPA-E administration, and the values as obtained are compared with those before administration, it is confirmed that the ALT activity and/or the HCV-RNA level is reduced by not less than 10%.
Instead of the ALT activity, improvement in liver tissue finding, reduction in lipid droplet, or reduction in proportion of 18:1 fatty acids (oleic acid in particular) among liver triglyceride fractions may be confirmed.

[7] = system: blood HCV-RNA level (hepatitis C virus); assay: Interferon therapy (interferon and ribavirin) with or without EPA-E in hepatitis C patients, by blood triglyceride level (Example 3); assay type: in vivo, human; conditions: hepatitis C complicated with hypertriglyceridemia; interferon therapy along with oral 1800 to 2700 mg/day EPA-E
Text: The determination of the response rate to interferon therapy needs a follow-up survey for six months or longer after the completion of the therapy, that is to say, is time-consuming. The response rate can be determined earlier by using a leading index as a surrogate. For instance, the response rate to interferon therapy is expected to be increased if the reduction in viral load (reduction in blood HCV-RNA level) is significant three days after the start of the therapy. Accordingly, the reduction in viral load three days after the start of interferon therapy can be used as a leading index for the determination of the response rate to the interferon therapy. The reduction in viral load is preferably not less than 2.0 as the difference between the common logarithm value of the blood HCV-RNA level before the start of interferon therapy and the common logarithm value of the blood HCV-RNA level three days after the start of interferon therapy.
On the patients having hepatitis C complicated with hypertriglyceridemia, the interferon therapy was then conducted along with the oral administration of 1800 to 2700 mg/day of EPA-E.
As a result, the reduction in viral load was 2.375 on average, that is to say, EPA-E improved the effectiveness of the interferon therapy in the patients having hepatitis C complicated with hypertriglyceridemia. […]

hepatitis C virus (HCV) [8] = assay: Response rate to repeated interferon therapy after EPA-E in non-responders or relapsers (Example 2-1); assay type: in vivo, human; conditions: 1800 to 2700 mg/day oral for three months before repeated interferon therapy; six months after completion of interferon therapy
Procedure: Employing those hepatitis C patients as targets who were determined as non-responders or relapsers after interferon therapy, it is confirmed that the response rate to the interferon therapy is improved in re-treatment cases by the administration of EPA-E.
The patients to be tested are divided into two groups, namely, EPA-E administered group and EPA-E non-administered group. To the EPA-E administered group, 1800 to 2700 mg/day of EPA-E is orally administered for three months after the patients were determined as non-responders or relapsers with respect to the interferon therapy. To the EPA-E non-administered group, none of EPA and derivatives thereof is administered during the testing period. Subsequently, the interferon therapy is conducted again on both groups. The dose, dosage interval, dosage period, and the like of interferon are specified as appropriate to the condition of a patient, side effects of the interferon, and so forth. The ratio at which the patients became negative for the HCV-RNA level is calculated six months after the completion of interferon therapy.
It is confirmed that the ratio as calculated is higher in the EPA-E administered group than the EPA-E non-administered group.

[9] = system: blood HCV-RNA level (hepatitis C virus); assay: Time to negativity for the blood HCV-RNA level on repeated interferon therapy after EPA-E (Example 2-3); assay type: in vivo, human; conditions: 1800 to 2700 mg/day oral at least two weeks before repeated interferon therapy
Procedure: Employing those hepatitis C patients as targets who were determined as non-responders or relapsers after interferon therapy, it is confirmed that the time at which the patients become negative for the blood HCV-RNA level is allowed to be earlier by the administration of EPA-E.
The patients to be tested are divided into two groups, EPA-E administered group and EPA-E non-administered group. To the EPA-E administered group, 1800 to 2700 mg/day of EPA-E is orally administered for at least two weeks after the patients were determined as non-responders or relapsers with respect to the interferon therapy. To the EPA-E non-administered group, none of EPA and derivatives thereof is administered during the testing period. Subsequently, the interferon therapy is conducted again on both groups. The dose, dosage interval, dosage period, and the like of interferon are specified as appropriate to the condition of a patient, side effects of the interferon, and so forth. The blood HCV-RNA level is measured in course of the administration of interferon. Data on the time after the start of interferon administration at which the patients became negative for the blood HCV-RNA level are collected to comparison between the two groups.
For instance, the ratio of the patients becoming negative for the blood HCV-RNA level within 12 weeks after the start of interferon administration is increased.

hepatitis C virus (HCV) [10] = conditions: hepatitis C patients; cited from earlier work
[11] = in one week of continuous oral administration

## CC/C=C\C/C=C\C/C=C\C/C=C\C/C=C\C/C=C\CCC(=O)O [DHA, docosahexaenoic acid]
[1]
  HCV replication-inhibiting effect independent of cytotoxicity: only linoleic acid had the HCV replication-inhibiting effect

## CC/C=C\C/C=C\C/C=C\C/C=C\C/C=C\CCCC(=O)O [EPA, icosapentaenoic acid]
[1]
  HCV replication-inhibiting effect independent of cytotoxicity: only linoleic acid had the HCV replication-inhibiting effect
[2]
  anaemia during combination therapy with interferon and ribavirin: can prevent anaemia
Hepatitis C virus (HCV) [3]
  effect of interferon and EPA in combination versus interferon alone on hepatitis C complicated with hepatic steatosis: greater effect
[4]
  HCV replication: inhibited HCV replication

## CC/C=C\C/C=C\C/C=C\C/C=C\C/C=C\CCCC(=O)OCC [EPA-E, ethyl icosapentate]
[5]; continuous oral administration
  time at which the plasma EPA level reaches a plateau: one week
[5]; [11]
  plasma EPA/AA (arachidonic acid) ratio: higher than 1.0
  plasma EPA/AA relative to that before administration: about two times
Hepatitis C virus (HCV) [6]; COBAS AMPLICOR MONITOR assay
  reduction of HCV-RNA level compared with before administration: not less than 10%
Hepatitis C virus (HCV) [6]
  reduction of ALT activity compared with before administration: not less than 10%
[7]
  reduction in viral load (difference between common logarithm values of the blood HCV-RNA level), on average: 2.375
Hepatitis C virus (HCV) [8]
  ratio at which patients became negative for the HCV-RNA level, versus EPA-E non-administered group: higher
Hepatitis C virus (HCV) [3]; ALT, HCV-RNA, hepatohistological test
  effect on hepatitis C complicated with hepatic steatosis versus not complicated with hepatic steatosis: greater
[9]
  ratio of patients becoming negative for the blood HCV-RNA level within 12 weeks after start of interferon administration: increased
  time at which patients become negative for the blood HCV-RNA level, versus EPA-E non-administered group: shows a tendency to be earlier

## CCCCC/C=C\C/C=C\C/C=C\C/C=C\CCCC(=O)O [arachidonic acid]
[1]
  HCV replication-inhibiting effect independent of cytotoxicity: only linoleic acid had the HCV replication-inhibiting effect
[4]
  HCV replication: inhibited HCV replication

## CCCCC/C=C\C/C=C\CCCCCCCC(=O)O [linoleic acid]
[1]
  HCV replication-inhibiting effect independent of cytotoxicity: only linoleic acid had the HCV replication-inhibiting effect

## IFN-α
Hepatitis C virus (HCV) [10]
  HCV elimination rate: about 30%
